Measurements: ChEMBL document CHEMBL5233245, “Monocarboxylate transporter 1 and 4 inhibitors as potential therapeutics for treating solid tumours: A review with structure-activity relationship insights” (Eur J Med Chem, 2020)

Legend:
[1] = molecular target: T1, Monocarboxylate transporter 4 (Homo sapiens, UniProt O15427); assay: Binding affinity to human MCT4 expressed in Xenopus laevis oocytes assessed as inhibition constant in presence of [14C]lactate by fluorescence assay
T1 sequence (O15427 whole entry): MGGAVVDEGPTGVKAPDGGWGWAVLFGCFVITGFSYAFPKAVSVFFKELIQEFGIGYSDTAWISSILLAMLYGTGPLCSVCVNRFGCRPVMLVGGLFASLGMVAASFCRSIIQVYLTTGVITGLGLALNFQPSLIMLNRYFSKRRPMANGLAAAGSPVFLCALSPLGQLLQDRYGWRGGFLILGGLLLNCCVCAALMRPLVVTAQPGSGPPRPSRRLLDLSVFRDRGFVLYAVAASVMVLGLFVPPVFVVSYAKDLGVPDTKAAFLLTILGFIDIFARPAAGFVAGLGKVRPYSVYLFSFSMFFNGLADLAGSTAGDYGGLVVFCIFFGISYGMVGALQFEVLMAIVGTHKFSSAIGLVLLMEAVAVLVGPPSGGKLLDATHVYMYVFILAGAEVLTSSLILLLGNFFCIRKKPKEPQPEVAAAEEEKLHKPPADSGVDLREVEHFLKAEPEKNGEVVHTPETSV

[2] = molecular target: T2, Monocarboxylate transporter 1 (Rattus norvegicus, UniProt P53987); assay: Inhibition of MCT1 in rat Brain-like endothelial cells incubated for 15 mins in presence of [14C]lactic acid by scintillation counter assay; assay type: cell-based
T2 sequence (P53987 whole entry): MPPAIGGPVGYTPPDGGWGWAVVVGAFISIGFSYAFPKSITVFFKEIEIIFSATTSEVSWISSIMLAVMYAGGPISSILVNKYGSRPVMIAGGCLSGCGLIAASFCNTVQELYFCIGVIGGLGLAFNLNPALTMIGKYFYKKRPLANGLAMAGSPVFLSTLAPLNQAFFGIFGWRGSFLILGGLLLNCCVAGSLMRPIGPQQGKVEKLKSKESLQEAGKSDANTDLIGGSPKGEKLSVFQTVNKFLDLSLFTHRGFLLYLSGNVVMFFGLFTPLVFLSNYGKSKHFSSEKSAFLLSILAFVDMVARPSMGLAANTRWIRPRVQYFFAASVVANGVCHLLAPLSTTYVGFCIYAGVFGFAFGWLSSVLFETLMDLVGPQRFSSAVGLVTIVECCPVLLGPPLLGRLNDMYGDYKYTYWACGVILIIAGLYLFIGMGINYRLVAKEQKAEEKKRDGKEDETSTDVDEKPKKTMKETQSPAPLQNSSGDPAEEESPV

[3] = molecular target: T2, Monocarboxylate transporter 1; assay: Inhibition of MCT1 in rat Brain-like endothelial cells incubated for 15 mins in presence of [14C]lactate by […]; assay type: cell-based
[4] = molecular target: T1, Monocarboxylate transporter 4; assay: Inhibition of MCT4 (unknown origin)
[5] = molecular target: T3, Monocarboxylate transporter 1 (Homo sapiens, UniProt P53985); assay: Inhibition of MCT1 (unknown origin)
T3 sequence (P53985 whole entry): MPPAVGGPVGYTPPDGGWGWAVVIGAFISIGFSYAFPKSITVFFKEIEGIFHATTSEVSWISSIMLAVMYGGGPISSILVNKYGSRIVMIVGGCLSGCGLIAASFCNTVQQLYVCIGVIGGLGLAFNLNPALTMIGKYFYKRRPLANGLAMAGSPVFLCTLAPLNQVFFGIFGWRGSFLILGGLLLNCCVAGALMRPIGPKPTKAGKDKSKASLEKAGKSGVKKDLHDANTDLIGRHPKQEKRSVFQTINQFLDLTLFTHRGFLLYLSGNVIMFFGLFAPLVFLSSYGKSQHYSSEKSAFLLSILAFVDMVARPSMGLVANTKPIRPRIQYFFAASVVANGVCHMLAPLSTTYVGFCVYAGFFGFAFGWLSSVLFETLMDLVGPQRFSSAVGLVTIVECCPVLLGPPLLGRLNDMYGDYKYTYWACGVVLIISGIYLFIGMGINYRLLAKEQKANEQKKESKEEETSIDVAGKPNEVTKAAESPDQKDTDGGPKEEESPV

[6] = molecular target: T3, Monocarboxylate transporter 1; assay: Inhibition of MCT1 (unknown origin) assessed as reduction in [14C]lactate uptake incubated for 20 mins by liquid scintillation counting analysis
[7] = tested on: Raji; assay: Antiproliferative activity against human Raji cells assessed as inhibition of cell growth by MTT assay; assay type: functional, cell-based
[8] = tested on: Mus musculus; assay: Antitumor activity against human WiDr cells xenografted in CD-1 mouse assessed as reduction in tumor growth at 25 mg/kg,ip qd measured after 16 days; assay type: functional; set-up: scale not given: the % may be the effect or the level left; conditions: time 16 day
[9] = tested on: MDA-MB-231; assay: Cytotoxicity against human MDA-MB-231 cells assessed as inhibition of cell growth; assay type: functional, cell-based
[10] = molecular target: T3, Monocarboxylate transporter 1; assay: Binding affinity to MCT1 (unknown origin) assessed as inhibition constant
[11] = tested on: Raji; assay: Cytotoxicity against human Raji cells assessed as inhibition of cell growth by MTT assay; assay type: functional, cell-based
[12] = molecular target: T4, Monocarboxylate transporter 2 (Rattus norvegicus, UniProt Q63344); assay: Binding affinity to MCT2 in rat Erythrocyte assessed as inhibition constant; assay type: cell-based
T4 sequence (Q63344 whole entry): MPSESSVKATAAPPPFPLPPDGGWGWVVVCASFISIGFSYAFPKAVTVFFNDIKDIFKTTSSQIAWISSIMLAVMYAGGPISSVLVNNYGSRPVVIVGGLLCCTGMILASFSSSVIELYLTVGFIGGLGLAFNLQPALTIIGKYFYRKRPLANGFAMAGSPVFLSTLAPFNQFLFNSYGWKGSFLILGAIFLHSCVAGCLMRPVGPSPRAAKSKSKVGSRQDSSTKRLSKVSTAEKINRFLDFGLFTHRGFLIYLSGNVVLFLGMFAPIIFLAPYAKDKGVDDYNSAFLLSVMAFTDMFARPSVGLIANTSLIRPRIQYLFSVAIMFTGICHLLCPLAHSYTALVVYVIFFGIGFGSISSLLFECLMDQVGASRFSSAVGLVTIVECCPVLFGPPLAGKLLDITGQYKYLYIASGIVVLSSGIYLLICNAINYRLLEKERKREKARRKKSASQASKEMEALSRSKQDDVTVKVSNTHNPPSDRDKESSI

[13] = molecular target: T2, Monocarboxylate transporter 1; assay: Binding affinity to MCT1 in rat Erythrocyte assessed as inhibition constant; assay type: cell-based

`CC(C)(OCc1nn(Cc2ccccc2)c2ccccc12)C(=O)O` [BINDARIT] gave a Ki [1] of 30200 nM.
For `N#C/C(=C\c1cn(-c2ccccn2)c2ccccc12)C(=O)O`, the IC50 [2] was > 1000 nM.
With `N#C/C(=C\c1ccc(OCCBr)cc1)C(=O)O` the IC50 [3] was > 5000 nM.
`N#C/C(=C\c1ccc(O)cc1)C(=O)O` [alpha-CYANO-4-HYDROXYCINNAMIC ACID] was tested, and the IC50 [4] was > 150000 nM and the IC50 [5] was 100000 nM.
For `COc1cc(N2CCCC2)ccc1/C=C(\C#N)C(=O)O`, the IC50 [6] was 48 nM.
With `CC(C)Cn1c(=O)n(C)c(=O)c2nc(CCCCCO)c(COc3ccc4ccccc4c3)nc21` the EC50 [7] was < 50 nM.
In the case of `CC(C)(C)[Si](Oc1ccc(/C=C(\C#N)C(=O)O)cc1)(c1ccccc1)c1ccccc1`, the Activity [8] is reported as 28%.
Compound `COc1cc(N(Cc2ccccc2)Cc2ccccc2)ccc1/C=C(\C#N)C(=O)O` has an IC50 [6] of 37 nM.
For `COC(=O)[C@@](O)(CO)COC(=O)c1nn(-c2ccc(N(Cc3ccccc3)Cc3ccccc3)cc2)c2ccccc12`, the IC50 [9] was 2330 nM.
For `CCCCCN(CCCCC)c1ccc(/C=C(\C#N)C(=O)O)c(OC)c1`, the IC50 [6] was 34 nM.
`Cc1[nH]nc(C(F)(F)F)c1Cc1sc2c(c1C(=O)N1C[C@](C)(O)CO1)c(=O)n(C)c(=O)n2C(C)C` [AZD3965] was tested, and the Ki [10] was 2 nM.
`N#C/C(=C\c1cn(-c2ccccc2)c2ccccc12)C(=O)O` was tested, and the IC50 [2] was 12.8 nM.
`CC(C)c1cc(=O)c2c(OCc3ccccc3CO)cc(OCc3ccc4ccccc4c3)cc2o1` was tested, and the EC50 [11] was > 100000 nM.
`COc1cc(N2CCCCC2)ccc1/C=C(\C#N)C(=O)O` gave an IC50 [6] of 25 nM.
For `Cc1n[nH]c(C)c1Cc1sc2c(c1C(=O)N1C[C@@H](O)CO1)c(=O)n(C)c(=O)n2CC(C)C`, the Ki [12] was < 10 nM and the Ki [13] was 2 nM.
For `N#C/C(=C\c1ccc(OCCO)cc1)C(=O)O`, the IC50 [3] was > 5000 nM.
For `N#C/C(=C\c1cn(Cc2ccccc2)c2ccccc12)C(=O)O`, the IC50 [2] was 65.9 nM.
`COc1cc(N(CC(C)C)CC(C)C)ccc1/C=C(\C#N)C(=O)O` was tested, and the IC50 [6] was 11 nM.
Work on `CC(C)(C)[Si](OCCOc1ccc(/C=C(\C#N)C(=O)O)cc1)(c1ccccc1)c1ccccc1` yielded an Activity [8] of 28%.
In the case of `Cc1cc(=O)c2c(OCCCO)cc(OCc3ccc4ccccc4c3)cc2o1`, the EC50 [11] is reported as 1000 nM.
`CC(C)c1cc(=O)c2c(OCCCO)cc(OCc3ccc4ccccc4c3)cc2o1` showed an EC50 [11] of 100 nM.
`COC(=O)[C@@](O)(CO)COC(=O)c1nn(-c2ccc(N(Cc3ccc(F)cc3)Cc3ccc(F)cc3)cc2)c2ccccc12` gave an IC50 [9] of 3020 nM.
